According to US20020137929A1, “1 - (3-heterocyclylphenyl) isothiourea, -isourea, -guanidine and -amidine herbicidal agents” (Intellectual Property Department, BASF Aktiengesellschaft, priority 1998, published 2002):

Columns and labels:
[1] = test system: GALAP (Galium); experiment: Preemergence herbicidal evaluation; type: in vivo, Galium aparine; settings: rated 4-5 weeks after treatment
Method in brief: (§1)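 Test compound, dissolved in aqueous acetone, was sprayed over planted soil cups at an equivalent of about 0.0156 to 0.500 kg/ha; seeds had been mixed with potting soil. Greenhouse growth followed, with visual 0-9 scoring of injury at four to five weeks.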

[2] = test system: CYPSE (Flatsedge); experiment: Postemergence weed control under flooded paddy conditions; type: in vivo, Cyperus serotinus; settings: postemergence weeds, 3-4 weeks after treatment
Method in brief: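 Herbicidal effect is judged by eye on a 0–9 scale versus control, 3–4 weeks after dosing. Dosing is into flood water kept 1.5–3 cm over the soil, at about 0.0313–0.500 kg/ha in aqueous/acetone 50/50 v/v, on 3–5 cm weeds and 1.5–2.5-leaf rice seedlings.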

[3] = test system: CASOB (Sicklepod); experiment: Postemergence herbicidal evaluation; type: in vivo, Cassia obtusifolia; settings: postemergence
Method in brief: (§2)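 Compound is applied as a foliar spray to seedlings about two weeks old, formulated in equal parts acetone and water with 0.5% TWEEN 20 and delivered at 40 psi to give about 0.0156–0.500 kg per hectare. Injury is rated visually 0–9 after four to five weeks.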

[4] = test system: CYPSE (Flatsedge); experiment: Preemergence weed control under flooded paddy conditions; type: in vivo, Cyperus serotinus; settings: rated 3-4 weeks after treatment
Method in brief: (§3)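 First, seeds or propagules go into the top 0.5 cm of silt loam; next, water is held 1.5 to 3 cm over the soil; then compound (50/50 acetone/water) is pipetted into it at about 0.0313 to 0.500 kg/ha; finally plants are rated visually 0-9 after three to four weeks.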

[5] = test system: CYPIR (Rice Flatsedge); experiment: as above; type: in vivo, Cyperus iria; settings: rated 3-4 weeks after treatment
Method in brief: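 Visual injury scored 0-9 against control three to four weeks post-treatment, greenhouse-grown. Application: acetone/water (50/50) solutions dosed directly into flood water (1.5-3 cm over silt loam, planted top 0.5 cm), roughly 0.0313 to 0.500 kg/ha active ingredient.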

[6] = test system: GLXMAW (Soybean, Williams); experiment: Postemergence herbicidal evaluation; type: in vivo, Glycine max, (L.) Merr. cv Williams; settings: postemergence
Method in brief: as §2

[7] = test system: ORYSAT (Rice, Tebonnet); experiment: Postemergence herbicidal evaluation; type: in vivo, Oryza sativa, (L.) Tebonnet; settings: postemergence
Method in brief: as §2

[8] = test system: GALAP (Galium); experiment: Postemergence herbicidal evaluation; type: in vivo, Galium aparine; settings: postemergence
Method in brief: as §2

[9] = test system: CHEAL (Lambsquarters, Common); experiment: Postemergence herbicidal evaluation; type: in vivo, Chenopodium album; settings: postemergence
Method in brief: as §2

[10] = test system: SETVI (Foxtail, Green); experiment: Postemergence herbicidal evaluation; type: in vivo, Setaria viridis; settings: postemergence
Method in brief: as §2

[11] = test system: ZEAMX (Corn, Field); experiment: Preemergence herbicidal evaluation; type: in vivo, Zea mays; settings: rated 4-5 weeks after treatment
Method in brief: as §1

[12] = test system: CASOB (Sicklepod); experiment: Preemergence herbicidal evaluation; type: in vivo, Cassia obtusifolia; settings: rated 4-5 weeks after treatment
Method in brief: as §1

[13] = test system: SAGPY (Arrowhead (Pygmaea)); experiment: Preemergence weed control under flooded paddy conditions; type: in vivo, Sagittaria pygmaea; settings: rated 3-4 weeks after treatment
Method in brief: as §3

[14] = test system: ECHCG (Barnyardgrass); experiment: Postemergence herbicidal evaluation; type: in vivo, Echinochloa crus-galli; settings: postemergence
Method in brief: as §2

[15] = test system: AMBEL (Ragweed, Common); experiment: Postemergence herbicidal evaluation; type: in vivo, Ambrosia artemisifolia; settings: postemergence
Method in brief: as §2

CCOC(=O)CN1C(=O)C(=C(C)C)S/C1=N/c1cc(-n2c(=O)cc(C(F)(F)F)n(C)c2=O)c(F)cc1Cl [Compound 20, Ethyl 2-{{2-chloro-5-[3,6-dihydro-3-methyl-2,6-dioxo-4-(trifluoromethyl)-1(2H)-pyrimidinyl]-4-fluorophenyl}imino}-5-isopropylidene-4-oxo-3-thiazolidineacetate]
GALAP preemergence herbicidal rating ([1]; rate 0.0625 kg/ha): 0.0 | GALAP preemergence herbicidal rating ([1]; rate 0.1250 kg/ha): 0.0 | GALAP preemergence herbicidal rating ([1]; rate 0.2500 kg/ha): 0.0 | Herbicidal rating CYPSE ([2]; rate 0.1160 kg/ha): 5.0 | Herbicidal rating CYPSE ([2]; rate 0.2310 kg/ha): 5.0 | Herbicidal rating CYPSE ([2]; rate 0.4630 kg/ha): 5.0 | CASOB herbicidal rating ([3]; rate 0.0158 kg/ha): 0.0 | CASOB herbicidal rating ([3]; rate 0.0315 kg/ha): 0.0 | CASOB herbicidal rating ([3]; rate 0.0630 kg/ha): 2.0 | Herbicidal rating CYPSE ([4]; 0.1160 kg/ha): 5.0 | Herbicidal rating CYPSE ([4]; 0.2310 kg/ha): 5.0 | Herbicidal rating CYPSE ([4]; 0.4630 kg/ha): 5.0 | Herbicidal rating CYPIR ([5]; 0.1160 kg/ha): 0.0 | Herbicidal rating CYPIR ([5]; 0.2310 kg/ha): 0.0 | Herbicidal rating CYPIR ([5]; 0.4630 kg/ha): 0.0 | GLXMAW herbicidal rating ([6]; rate 0.0158 kg/ha): 3.5 | GLXMAW herbicidal rating ([6]; rate 0.0315 kg/ha): 4.0 | GLXMAW herbicidal rating ([6]; rate 0.0630 kg/ha): 5.5 | ORYSAT herbicidal rating ([7]; rate 0.0158 kg/ha): 2.0 | ORYSAT herbicidal rating ([7]; rate 0.0315 kg/ha): 2.0 | ORYSAT herbicidal rating ([7]; rate 0.0630 kg/ha): 3.0 | GALAP herbicidal rating ([8]; rate 0.0158 kg/ha): 1.0 | GALAP herbicidal rating ([8]; rate 0.0315 kg/ha): 2.0 | GALAP herbicidal rating ([8]; rate 0.0630 kg/ha): 6.0 | CHEAL herbicidal rating ([9]; rate 0.0158 kg/ha): 4.0 | CHEAL herbicidal rating ([9]; rate 0.0315 kg/ha): 6.0 | CHEAL herbicidal rating ([9]; rate 0.0630 kg/ha): 7.0 | SETVI herbicidal rating ([10]; rate 0.0158 kg/ha): 1.0 | SETVI herbicidal rating ([10]; rate 0.0315 kg/ha): 1.0 | SETVI herbicidal rating ([10]; rate 0.0630 kg/ha): 4.0 | ZEAMX preemergence herbicidal rating ([11]; rate 0.0625 kg/ha): 0.0 | ZEAMX preemergence herbicidal rating ([11]; rate 0.1250 kg/ha): 0.0 | ZEAMX preemergence herbicidal rating ([11]; rate 0.2500 kg/ha): 0.0 | CASOB preemergence herbicidal rating ([12]; rate 0.0625 kg/ha): 0.0 | CASOB preemergence herbicidal rating ([12]; rate 0.1250 kg/ha): 0.0 | CASOB preemergence herbicidal rating ([12]; rate 0.2500 kg/ha): 9.0 | Herbicidal rating SAGPY ([13]; 0.1160 kg/ha): 0.0 | Herbicidal rating SAGPY ([13]; 0.2310 kg/ha): 0.0 | Herbicidal rating SAGPY ([13]; 0.4630 kg/ha): 3.0 | ECHCG herbicidal rating ([14]; rate 0.0158 kg/ha): 1.0 | ECHCG herbicidal rating ([14]; rate 0.0315 kg/ha): 1.0 | ECHCG herbicidal rating ([14]; rate 0.0630 kg/ha): 2.0 | AMBEL herbicidal rating ([15]; rate 0.0158 kg/ha): 4.0 | AMBEL herbicidal rating ([15]; rate 0.0315 kg/ha): 5.0 | AMBEL herbicidal rating ([15]; rate 0.0630 kg/ha): 6.0
